# From PubChem BioAssay (NCI)
# Values joined by “and” are separate entries in the source; they are usually repeats but may differ in a detail not shown here. Equal entries are not always repeated.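 Cells were grown in 96-well plates and exposed to each compound for 48 hours at five concentrations; endpoints were interpolated linearly between bracketing concentrations, or set to the highest concentration if not reached. Here, GI50 denotes the concentration required for 50% inhibition of growth. TGI: total growth inhibition.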
# How the values were obtained:
# Assay in all cases: NCI-60 cell line screen, 48 h
# PC-3 prostate = test system: PC-3 prostate
# NCI/ADR-RES ovarian = test system: NCI/ADR-RES ovarian
# MCF7 breast = test system: MCF7 breast
# UO-31 renal = test system: UO-31 renal
# HS 578T breast = test system: HS 578T breast
# SK-MEL-2 melanoma = test system: SK-MEL-2 melanoma
# LOX IMVI melanoma = test system: LOX IMVI melanoma
# HCC-2998 colon = test system: HCC-2998 colon
# OVCAR-4 ovarian = test system: OVCAR-4 ovarian
# BT-549 breast = test system: BT-549 breast
Compound,GI50 (PC-3 prostate),TGI (PC-3 prostate),GI50 (NCI/ADR-RES ovarian),TGI (NCI/ADR-RES ovarian),GI50 (MCF7 breast),TGI (MCF7 breast),GI50 (UO-31 renal),TGI (UO-31 renal),GI50 (HS 578T breast),TGI (HS 578T breast),GI50 (SK-MEL-2 melanoma),TGI (SK-MEL-2 melanoma),GI50 (LOX IMVI melanoma),TGI (LOX IMVI melanoma),GI50 (HCC-2998 colon),TGI (HCC-2998 colon),GI50 (OVCAR-4 ovarian),TGI (OVCAR-4 ovarian),GI50 (BT-549 breast),TGI (BT-549 breast)
Cc1ccc(-c2csc(/N=C3\C(=O)Nc4ccccc43)n2)cc1,1.08 µM,2.82 µM,20.7 µM,> 100 µM,1.01 µM,3.11 µM,1.96 µM,22.4 µM,1.97 µM,6.66 µM,1.63 µM,3.69 µM,1.28 µM,2.8 µM,1.6 µM,3.21 µM,1.75 µM,6.48 µM,1.49 µM,3.06 µM
C=C1C(=O)O[C@H]2C[C@@H]1CC/C(C)=C/CC/C(C)=C/CC[C@H]2C,8.54 µM,20.9 µM,7.43 µM,21.5 µM,14.7 µM,56.7 µM,1.12 µM,4.02 µM,27.3 µM,> 78 µM,30.9 µM,> 61.9 µM,5.56 µM,12.3 µM,14.5 µM,28.9 µM,,,17.1 µM,41.5 µM
CN[C@H]1C=C[C@@H]2/C=C(C)/C=C/[C@@H](C)[C@H]([C@H](C)[C@H](O)[C@@H](C)NC(C)=O)OC(=O)/C=C/C=C(C)\C=C\[C@]2(C)C1,0.0049 µM,> 49 µM,0.44 µM and 0.347 µM,> 49 µM,< 0.001 µM and 0.0049 µM,> 49 µM,0.00994 µM,> 49 µM,0.0597 µM and 0.0123 µM,> 49 µM,,27.9 µM,0.0049 µM,0.00504 µM,5.5 µM,> 49 µM,7.12 µM,> 49 µM,0.0049 µM,> 49 µM
Cn1cc(C2=C(c3cn(CCCCN)c4ccccc34)C(=O)NC2=O)c2ccccc21,> 25 µM,> 25 µM,> 25 µM,> 25 µM,> 25 µM,> 25 µM,> 25 µM,> 25 µM,> 25 µM,> 25 µM,> 25 µM,> 25 µM,> 25 µM,> 25 µM,> 25 µM,> 25 µM,> 25 µM,> 25 µM,> 25 µM,> 25 µM
Cc1cnc(NC(=O)Nc2cc(Br)c(C)cc2OC[C@@H]2CNCCO2)cn1,5.77 µM and 3.73 µM,> 10 µM and 16.4 µM,0.841 µM and 0.679 µM,> 10 µM and 11.7 µM,0.431 µM and 0.418 µM,> 10 µM and 6.15 µM,0.483 µM and 1.06 µM,> 10 µM and 12 µM,0.572 µM and 0.771 µM,> 10 µM and 8.82 µM,0.55 µM and 0.653 µM,> 10 µM and 13 µM,0.828 µM and 1.45 µM,2.46 µM and 4.97 µM,0.468 µM and 0.493 µM,> 10 µM and 5.28 µM,5.85 µM and 1.05 µM,> 10 µM and 15.5 µM,1.28 µM and 1.29 µM,> 10 µM and 13.6 µM
CCc1cccc(C)c1NC(=O)c1sc2nc3c(cc2c1N)CCCCC3,3.19 µM,> 100 µM,2.36 µM,14.1 µM,1.86 µM,> 100 µM,6.08 µM,> 100 µM,4.87 µM,> 100 µM,3.27 µM,> 100 µM,5.3 µM,91.5 µM,12.4 µM,85.8 µM,8.37 µM,> 100 µM,5.18 µM,54.9 µM
COc1ccc(-c2cc(=O)c3ccc(C)nc3[nH]2)cc1,> 100 µM,> 100 µM,,> 100 µM,,> 100 µM,,> 100 µM,,> 100 µM,,> 100 µM,,> 100 µM,,> 100 µM,,> 100 µM,,> 100 µM
C=C1C(O)C2C(=C(CCc3ccccc3)C13CC3)C(=O)C(C)(CO)C2O (stereo not drawn),> 100 µM,> 100 µM,> 100 µM,> 100 µM,53.5 µM,> 100 µM,> 100 µM,> 100 µM,14.3 µM,99.8 µM,> 100 µM,> 100 µM,> 100 µM,> 100 µM,> 100 µM,> 100 µM,> 100 µM,> 100 µM,> 100 µM,> 100 µM
CC(=O)OCC1OC(n2c(-c3ccc(Cl)cc3)ccc(C#N)c2=S)C(OC(C)=O)C(OC(C)=O)C1OC(C)=O (stereo not drawn),,> 100 µM,,> 100 µM,,> 100 µM,,> 100 µM,5.34 µM and 23.8 µM,67.3 µM and > 100 µM,16 µM and 87 µM,45.6 µM and > 100 µM,,> 100 µM,,> 100 µM,> 100 µM and 19.9 µM,> 100 µM and 93.3 µM,15.9 µM and 35 µM,38.9 µM and > 100 µM
CC(C)=CCc1c(OC(=O)c2c(C)cc(O)cc2O)cc(CO)c(CO)c1O,,36.8 µM,,85.6 µM,,46.5 µM,,34.4 µM,,54.8 µM,,59.5 µM,,40.9 µM,,31.7 µM,,38.2 µM,,41 µM
CN(C)CCCNC(=O)c1cc(NC(=O)c2cc(NC(=O)CCc3c[nH]c4ccccc34)cn2C)cn1C,> 100 µM,> 100 µM,> 100 µM,> 100 µM,> 100 µM,> 100 µM,> 100 µM,> 100 µM,> 100 µM,> 100 µM,> 100 µM,> 100 µM,> 100 µM,> 100 µM,,,> 100 µM,> 100 µM,> 100 µM,> 100 µM
O=C1c2ccccc2-c2c1c1c(=O)[nH]c3ccccc3c1n2Cc1ccccc1,,,52.6 µM,> 100 µM,35.8 µM,> 100 µM,> 100 µM,> 100 µM,16.5 µM,35.7 µM,> 100 µM,> 100 µM,31.3 µM,> 100 µM,,,45.4 µM,> 100 µM,19.5 µM,34.7 µM
Cc1sc2nc(-c3ccncc3)c(/C=N/N=C(N)N)n2c1C,58.4 µM,> 100 µM,> 100 µM,> 100 µM,,,54.1 µM,> 100 µM,,,,,28.2 µM,78 µM,,,67.3 µM,> 100 µM,73.5 µM,> 100 µM
